Measured values from US20250353873A1, “COMPOUNDS AND METHODS FOR MODULATING APOE EXPRESSION” (Ionis Pharmaceuticals, Inc., priority 2024, published 2025).
Several values for one entry are separate records, joined by “and”; a condition that tells them apart may be missing. Equal values may be shown once. Strand notation (5' to 3'): a small letter for the sugar, then the base; units joined by * are phosphorothioate-linked, units joined directly phosphodiester-linked; [ ] holds rarer units or linkages, { } end groups; capitals alone tell only the bases. [ms] = mesyl phosphoramidate linkage; k = constrained ethyl (cEt); [5mC] = 5-methylcytosine; d = 2'-deoxy (DNA)

Key:
[1] = system: human APOE RNA; test: Activity in APOE C57BL/6NTac-Apoeem7250 knock-in mice, single ICV bolus, 8 weeks (Example 11); format: in vivo; settings: single ICV bolus 300 μg, 8 weeks post treatment, normalized to mouse Ppia
Method in brief: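 Human APOE knock-in C57BL/6NTac mice given one ICV bolus of 300 μg oligonucleotide; PBS-dosed group as control. At 8 weeks, cortex and spinal cord RNA measured by qRT-PCR (human probe RTS3073), normalized to mouse Ppia, expressed as % of PBS control.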

[2] = system: human APOE RNA; test: Duration of action study in APOE C57BL/6NTac-Apoeem7250 knock-in mice (Example 16); format: in vivo; settings: 300 μg ICV
Experimental: Modified oligonucleotides described above were tested in the APOE C57BL/6NTac-Apoeem7250 knock-in mouse model described above.
APOE C57BL/6NTac-Apoeem7250 knock-in mice were divided into groups of 2-4 mice each. Each mouse received a single intracerebroventricular (ICV) bolus of 300 μg of modified oligonucleotide. A group of 2-4 mice received a single ICV bolus with PBS as a negative control.
Mice were sacrificed at various timepoints as indicated in the table below and RNA was extracted from cortical brain tissue and spinal cord for quantitative real-time RT-PCR analysis of RNA expression of APOE using primer probe set RTS3073 (described herein above). APOE RNA levels were normalized to mouse Ppia. Mouse Ppia was amplified using primer probe set m_cyclo24 (described herein above). Results are presented as percent human APOE RNA relative to the amount of human APOE RNA in PBS treated animals, (% control). Each experiment is identified in separate tables below.

[3] = system: human APOE RNA; test: Activity in APOE C57BL/6NTac-Apoeem7250 knock-in mice, single ICV bolus, 4 weeks (Example 10); format: in vivo; settings: single ICV bolus 300 μg, 4 weeks post treatment, normalized to mouse Ppia
Method in brief: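 Knock-in mice (2–4 per group) received one 300 μg ICV bolus of oligonucleotide or PBS. After four weeks, human APOE RNA in cortex and spinal cord measured by RT-qPCR (primer probe set RTS3073), normalized to mouse Ppia, expressed as % of PBS controls.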

[4] = system: human APOE RNA; test: Dose-dependent inhibition of human APOE RNA in HepG2 cells, electroporation, 50,000 cells per well, RT-PCR normalized to GAPDH (Example 4, Tables 8-10); format: cell-based; settings: HepG2, electroporation, 24-hour treatment
Method in brief: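 HepG2 cells, 50,000 per well, electroporated with modified oligonucleotide at various concentrations. APOE RNA quantified by RT-PCR with human primer probe set RTS3073, normalized to GAPDH. Values are percent APOE RNA relative to untreated control cells.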

[5] = system: human APOE RNA; test: Dose-dependent inhibition of human APOE RNA in differentiated SH-SY5Y cells, free uptake, 5 days (Example 5); format: cell-based; settings: 5 days (Table 14)
Experimental: Modified oligonucleotides selected from the examples above were tested at various doses in differentiated SH-SY5Y cells. The modified oligonucleotides were tested in a series of experiments that had the same culture conditions.
Differentiated SH-SY5Y cells plated at a density of 10,000 cells per well were treated by free uptake with various concentrations of modified oligonucleotide as specified in the tables below. […] APOE RNA levels were measured using the human primer probe set RTS3073 (described herein above). APOE RNA levels were normalized to human PPIA. Human PPIA was amplified using human primer probe set mk_cycloA_2nd (described herein above). Results are presented as percent APOE RNA, relative to the amount of APOE RNA in untreated control cells (% UTC). The half maximal inhibitory concentration (IC50) of each modified oligonucleotide was calculated in GraphPad Prism 10 (GraphPad Software, San Diego, CA) and is also presented in the tables below.

Row | Substance | APOE RNA (% control) Cortex [1] [% control] | APOE RNA (% control) Spinal Cord [1] [% control] | APOE RNA (% control) Cortex ([2]; 112 days post-dose) [% control] | APOE RNA (% control) Cortex ([2]; 140 days post-dose) [% control] | APOE RNA (% control) Spinal Cord ([2]; 112 days post-dose) [% control] | APOE RNA (% control) Spinal Cord ([2]; 140 days post-dose) [% control] | APOE RNA (% control) Cortex [3] | APOE RNA (% control) Spinal Cord [3] | APOE RNA (% UTC) ([4]; 5 nM) | APOE RNA (% UTC) ([4]; 13 nM) | APOE RNA (% UTC) ([4]; 33 nM) | APOE RNA (% UTC) ([4]; 82 nM) | APOE RNA (% UTC) ([4]; 205 nM) | APOE RNA (% UTC) ([4]; 512 nM) | APOE RNA (% UTC) ([4]; 1,280 nM) | APOE RNA (% UTC) ([4]; 3,200 nM) | APOE RNA (% UTC) ([4]; 8,000 nM) | APOE RNA (% UTC) ([4]; 20,000 nM) | IC50 [4] [nM] | APOE RNA (% UTC) ([5]; 5 nM) | also measured
1 | 1746804 (k[5mC]*kT*kT*dG[ms]dG[ms]dT[ms]dG[ms]dA[ms]dA[ms]dT*d[5mC]*dT*dT*dT*dA[ms]dT*dT[ms]kA*kA*kA; antisense) [Compound 1746804] | 40 | 25 | 37 | 60 | 205 | 207 | 51 % control and 46 % control | 52 % control and 40 % control | 89 | 88 | 80 | 81 | 66 | 57 | 45 | 40 | 4 | 2 | 680 | 114 | APOE RNA (% UTC) ([5]; 13 nM): 117 % UTC; APOE RNA (% UTC) ([5]; 33 nM): 120 % UTC; APOE RNA (% UTC) ([5]; 82 nM): 97 % UTC; APOE RNA (% UTC) ([5]; 205 nM): 84 % UTC; APOE RNA (% UTC) ([5]; 512 nM): 82 % UTC; APOE RNA (% UTC) ([5]; 1,280 nM): 61 % UTC; APOE RNA (% UTC) ([5]; 3,200 nM): 48 % UTC; APOE RNA (% UTC) ([5]; 8,000 nM): 32 % UTC; APOE RNA (% UTC) ([5]; 20,000 nM): 18 % UTC; IC50 [5]: 2830 nM
2 | 1746799 (k[5mC]*dT[ms]kT*dG[ms]kG*dT[ms]dG[ms]dA[ms]dA[ms]dT*d[5mC]*dT*dT*dT*dA[ms]dT*kT*dA[ms]kA*kA; antisense) [Compound 1746799] | 45 | 39 | 46 | 70 | 78 | 66 | 47 % control | 42 % control | 115 | 130 | 153 | 125 | 106 | 84 | 52 | 23 | 24 | 33 | 1740 | – | –
3 | 1746800 (k[5mC]*dT[ms]kT*dG[ms]dG[ms]kT*dG[ms]dA[ms]dA[ms]dT*d[5mC]*dT*dT*dT*dA[ms]dT*kT*dA[ms]kA*kA; antisense) [Compound 1746800] | 40 | 30 | 52 | 75 | 88 | 58 | 41 % control | 40 % control | 108 | 111 | 137 | 115 | 97 | 77 | 87 | 39 | 35 | 8 | 3270 | – | –
4 | 1747050 (k[5mC]*kT*kT*dG[ms]dG[ms]kT*dG[ms]dA[ms]dA[ms]dT*d[5mC]*dT*dT*dT*dA[ms]dT*kT*dA[ms]dA[ms]kA; antisense) [Compound 1747050] | 36 | 23 | 63 | 74 | 93 | 86 | 29 % control | 45 % control | 182 | 135 | 115 | 111 | 110 | 76 | 49 | 31 | 14 | 10 | 1540 | – | –
5 | 1746784 (k[5mC]*kT*kT*dG[ms]dG[ms]dT[ms]dG[ms]dA[ms]dA[ms]dT*d[5mC]*dT*dT*dT*dA[ms]dT*kT*kA*dA[ms]kA; antisense) [Compound 1746784] | 38 | 138 | 38 | 45 | 24 | 56 | 49 % control and 39 % control | 26 % control | 78 | 74 | – | 80 | 61 | 48 | 29 | 10 | 7 | 7 | 310 | 82 | APOE RNA (% UTC) ([5]; 13 nM): 118 % UTC; APOE RNA (% UTC) ([5]; 33 nM): 83 % UTC; APOE RNA (% UTC) ([5]; 82 nM): 61 % UTC; APOE RNA (% UTC) ([5]; 205 nM): 49 % UTC; APOE RNA (% UTC) ([5]; 512 nM): 62 % UTC; APOE RNA (% UTC) ([5]; 1,280 nM): 36 % UTC; APOE RNA (% UTC) ([5]; 3,200 nM): 24 % UTC; APOE RNA (% UTC) ([5]; 8,000 nM): 13 % UTC; APOE RNA (% UTC) ([5]; 20,000 nM): 6 % UTC; IC50 [5]: 440 nM
6 | 1746790 (k[5mC]*dT[ms]kT*dG[ms]dG[ms]kT*dG[ms]dA[ms]dA[ms]dT*d[5mC]*dT*dT*dT*dA[ms]dT*kT*kA*dA[ms]kA; antisense) [Compound 1746790] | – | – | 75 | 77 | 62 | 108 | 53 % control | 61 % control | 104 | 133 | 94 | 112 | 89 | 63 | 20 | 24 | 15 | 8 | 750 | – | –
